Data set [1] concerns bleomycin-injured mice (pulmonary fibrosis). Put plainly: EGCG treatment of bleomycin-injured mice monitored with Gd-9 MRI. Format: in vivo, mouse. As for the experimental part:
Gd-9 is a Gd-DOTA derivative with two hydrazine arms synthesized by amide coupling of two tBu-piperazin-1-ylcarbamate groups to 1,4,7,10-tetraazacyclododecane-1,4-bis(tBu-acetate)-4,10-bis(glutaric acid 1-tBu ester), followed by acid deprotection and gadolinium complexation. C57Bl/6 adult male mice at 8 weeks of age received a single intratracheal dose of bleomycin, 1 U/kg body weight (50 μL total volume) as previously described. Pair-wise imaging study of GdCHyd and Gd-9 was carried out in mice at day 14 post bleomycin injury on a 4.7 T MRI with a dose of 100 μmol/kg of each probe. For the treatment study, mice were imaged first at day 10 post bleomycin injury, then treated daily with oral gavage of either epigallocatechin gallate (EGCG, 100 mg/kg) or PBS (vehicle) for 11 days. At day 21 post bleomycin injury, the animals were imaged again. MRI consisted of T1-weighted UTE (TR/TE/flip angle=4 ms/0.011 ms/15°) images acquired prior to and up to 30 minutes following intravenous administration of Gd-9 ([…]). Following the second imaging session, animals were euthanized (60 minutes post injection), and lung tissues were removed for further analysis.
The dual hydrazine probe Gd-9 was first compared to GdCHyd in a head-to head comparison in vivo. Mice were imaged 14 days after bleomycin injury first with Gd-CHyd and then 4 h later with Gd-9. […] Gd-9 was nexted used to monitor response to EGCG treatment in bleomycin-injured mice. Mice were imaged at 10 days after bleomycin injury and then the mice were treated with EGCG (100 mg/kg) or PBS (vehicle) for 11 days, and then the mice were imaged again (FIG. 14).

Data set [2] can be described thus: Reaction rates with 2-formylpyridine measured by HPLC-ICP-MS (Method A). It is filed as physicochemical. The note with it: Method a: 2-formylpyridine 1000 μM, probe 25 μM, pH 7.40 PBS. As for the experimental part: Quantitative Measurement of Reaction Rates with Aldehydes: Method A: Reaction Rates of Compounds with 2-Formylpyridine Measured by HPLC-ICP-MS
Reactivity of aldehyde-binding probes were assessed in pH 7.40 phosphate-buffered saline under pseudo-first order conditions with 2-formylpyridine concentration of 1000 μM and probes at 25 μM. Concentrations of unreacted starting material and condensation products were determined at 12 min time intervals based on their relative integrations. The values were fit to a standard first order rate constant linear equation and the rate constant was extracted from the slope.

Data set [3] concerns the target T1, BSA-ALD (oxidized bovine serum albumin containing allysine aldehyde groups) (Bos taurus, UniProt P02769).
T1 construct: made in house; host or cells: no expression host: BSA oxidised chemically with sodium ascorbate, ferric chloride and H2O2, then desalted on PD-10
Nature of the data set: Relaxivity measurements with BSA-Ald. It is filed as binding. The note with it: 37° C.; for r1, +BSA-Ald / r1, Bound to BSA-Ald: 1.4 T; for r1, +BSA-Ald: BSA-Ald 10 mg/mL; for r1, Bound to BSA-Ald: protein-bound species after NaBH3CN and ultrafiltration. Here is the method:
Preparation of Allysine Containing Bovine Serum Albumin, BSA-ALD:
To a solution of bovine serum albumin (BSA) (100 mg) dissolved in phosphate buffered saline (4 mL, pH 7.4, 0.25 mM), sodium ascorbate (20 mg), ferric chloride (120 μL, 10 mM) and 20 μL H2O2 (30% w) were added. The reaction was stirred at 37° C. for 24 hours, and sodium ascorbate (20 mg) was added repeatedly every 8 hours. After the reaction, protein was purified using PD-10 Sephadex G25 desalting columns (GE Healthcare), eluted with PBS. Protein concentration was assessed using the ‘BCA Protein Assay Kit’ (Thermo Scientific). Protein carbonyl concentration was determined by ‘Protein Carbonyl Content Assay Kit’ (Sigmal-Aldrich).
(§1) Alternatively, preparation of BSA^Ald and binding of Gd^3+ probe to protein was carried out according to modified procedures. To a solution of bovine serum albumin (BSA) (100 mg) dissolved in phosphate buffered saline (4 mL, pH 7.4, 0.25 mM) was added sodium ascorbate (20 mg), ferric chloride (120 μL, 10 mM) and 20 μL H2O2 (30% w). The reaction was stirred at 37° C. for 24 h, and sodium ascorbate (20 mg) was added repeatedly every 8 h. After 24 h, the protein was purified using PD-10 Sephadex G25 desalting columns (GE Healthcare), eluted with PBS. Protein concentration was assessed using the ‘Micro BCA Protein Assay Kit’ (Thermo Scientific, 23235). Protein carbonyl concentration was determined by ‘Protein Carbonyl Content Assay Kit’ (Sigma-Aldrich, MAK094-1KT). […] The protein solutions were kept at a concentration of 20 mg/mL for further use.
(§2) BSA-ALD (10 mg/mL) or BSA (10 mg/mL) were treated for 24 hours at 37° C. with the corresponding Gd or Mn complex at a range of concentrations (0.01-0.2 mM), with a total volume of 300 μL maintained for all samples. After 24 hours, an aliquot of the solution (50 μL) was used for longitudinal (T1) relaxation measurements, recorded using a Bruker mq60 Minispec at 1.41 T and 37° C. Longitudinal (T1) relaxation times were measured via an inversion recovery experiment using 10 inversions of duration ranging between 0.05×T1 and 10×T1. Solutions (concentration range: 0.1 mM-1.0 mM) in PBS were run in parallel. To measure the relaxivity of BSA-bound species, sodium cyanoborohydride (10 mg) was added to the solution to irreversibly bind the probe to the protein. After a further 2h incubation at 37° C., protein-bound and protein-free solutions were separated by ultrafiltration. Then 200 μL PBS was added to the residue to dissolve the protein. Longitudinal (T1) relaxation times for the bounded species were measured using a Bruker mq60 Minispec at 1.41 T and 37° C. After the measurement, concentration of corresponding metal ion (Gd/Mn) in the residue and filter were both determined using an Agilent 8800 ICP-MS system. Relaxivity (r1) was determined from the slope of a plot of 1/T1 vs metal concentration for 5 concentrations.

Data set [4] concerns the target bovine serum albumin (BSA) (Bos taurus, UniProt P02769). Nature of the data set: Relaxivity measurements with BSA. Format: binding. The note with it: 1.4 T, 37° C., BSA 10 mg/mL. Here is the method: as §2
Data set [5] can be described thus: Relaxivity measurements in PBS. The note with it: 1.4 T, 37° C. Format: physicochemical. As for the experimental part:
as §2

The target in another data set is T2, BSA-ALD (Bos taurus, UniProt P02769).
T2 construct: made in house; host or cells: no expression host: BSA oxidised chemically with sodium ascorbate, ferric chloride and H2O2, then desalted on PD-10
T2 sequence (P02769 25-607): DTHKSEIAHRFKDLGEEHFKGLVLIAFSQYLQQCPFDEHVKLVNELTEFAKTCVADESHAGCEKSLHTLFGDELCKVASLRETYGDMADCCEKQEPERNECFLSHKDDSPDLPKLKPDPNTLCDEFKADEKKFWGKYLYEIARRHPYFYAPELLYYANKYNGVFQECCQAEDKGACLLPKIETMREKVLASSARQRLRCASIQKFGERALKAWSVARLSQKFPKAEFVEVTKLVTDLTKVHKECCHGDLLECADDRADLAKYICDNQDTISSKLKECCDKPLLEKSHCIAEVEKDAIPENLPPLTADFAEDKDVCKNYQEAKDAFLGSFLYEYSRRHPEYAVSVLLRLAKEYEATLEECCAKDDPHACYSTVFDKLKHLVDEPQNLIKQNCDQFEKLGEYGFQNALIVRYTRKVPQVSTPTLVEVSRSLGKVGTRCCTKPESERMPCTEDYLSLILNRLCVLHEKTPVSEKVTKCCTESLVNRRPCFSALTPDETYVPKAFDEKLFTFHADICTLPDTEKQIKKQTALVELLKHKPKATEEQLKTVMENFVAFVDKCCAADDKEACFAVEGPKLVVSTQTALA
Nature of the data set: Binding yield measurements of Gd^3+ complex with BSA^Ald (ultrafiltration, ICP-MS). More on the design: species or system bovine. The note with it: pH 7.4, PBS, 37° C., 12 h, ultrafiltration 5,000 Da cut-off. Here is the method:
FIG. 48. […] Binding concentration of the probes to BSA^Ald (pH 7.4, PBS, 37° C., 12 h) as determined by ICP-MS following an ultrafiltration (5,000 Da cut-off) to separate the protein-bound probe from the unbound probe. Slope gives the binding yield.
as §1

The test system of data set [6] is ECM proteins from fibrotic rat liver. Put plainly: Relaxivity measurements in ECM. It is filed as binding. As for the experimental part: Liver fibrosis was induced in male Sprague Dawley rats by ligation of the common bile duct (CD®, Charles River Labs, Wilmington, MA). Ten days after common bile duct ligation, the fibrotic liver was harvested and sequential extractions were performed using the CNMCS (Cytosol/Nucleus/Membrane/Cytoskeleton) Compartmental Protein Extraction kit (Cytomol, Union City, CA) according to manufacturer's instructions. In brief, frozen tissues (150-200 mg) were homogenized and with solvents provided in the kit to sequentially to remove: cytosolic proteins, nuclear proteins, membrane proteins, and cytoskeletal proteins, leaving a final insoluble fraction enriched for ECM proteins.
Relaxivity Measurements in ECM
The enriched ECM proteins from 800 mg of fibrotic rat liver were suspended in 1 ml PBS. The ECM protein concentration was about 10% (5 mg in a 50 μL aliquot determined by weight after lyophilization). An aliquot of the solution (50 μL) was treated for 2 h at 37° C. with the corresponding molecular probe at a range of concentrations (0.01-0.1 mM) and then longitudinal (T1) relaxation measurements was recorded using a Bruker mq60 Minispec at 1.41 T and 37° C. For the blocking experiment with N2H4, a 100 fold-excess of N2H4 referred to the concentration of molecular probe was added to the solution before the incubation. Longitudinal (T1) relaxation times were measured via an inversion recovery experiment using 10 inversions of duration ranging between 0.05×T1 and 10×T1. Relaxivity (r1) was determined from the slope of a plot of 1/T1 vs metal concentration for 4 concentrations.

Data set [7] in a line: Reaction rates with butyraldehyde measured by HPLC-ICP-MS (Method B). It is filed as physicochemical. The note with it: Method b: butyraldehyde 100 μM, probe 25 μM, pH 7.40. As for the experimental part:
Method B: Reaction Rates of Compounds with Butyraldehyde Measured by HPLC-ICP-MS
The reactions were conducted in pH 7.40 phosphate-buffered with butyraldehyde concentration of 100 μM and hydrazine probes at 25 μM. Concentrations of unreacted starting material and condensation products were determined at 10 min time intervals over 2 hours based on their relative integrations. The values were fit to a standard first order rate constant linear equation and the rate constant was extracted from the slope.
Reaction with Butyraldehyde Monitored by HPLC-ICP-MS
Reactions were conducted in pH 7.4 phosphate-buffered saline with butyraldehyde concentration of 100 μM and hydrazine probes at 25 μM. Concentrations of unreacted starting material and condensation products were determined based on their relative integrations at 12 min time intervals over 2 hours.

Data set [8] is described as follows: Biodistribution of manganese in healthy mice 60 minutes post-injection. Format: in vivo, mouse. The note with it: 0.1 mmol/kg i.v. An excerpt: To meet these requirements, the probes Mn-12, Mn-13 and Mn-14 were designed based on the stable Mn-1,4-DO2A chelate. […] This combination of stability, turn-on relaxivity, and low uptake in healthy liver indicate that Mn-12 is quite promising as a novel probe for liver fibrogenesis detection.

Where [9] appears, read: EGCG 100 mg/kg oral gavage daily for 11 days vs vehicle.

Each structure is given as a SMILES string. Several values for one entry are separate records, joined by “and”; a condition that tells them apart may be missing. Identical values can stand only once. Entries after “also recorded” stand apart in the source; their conditions may differ.

Sequence of bovine serum albumin (BSA) (P02769 25-607): as above
T1 sequence (P02769 25-607): as above

For the compound `O=C(O[C@@H]1Cc2c(O)cc(O)cc2O[C@@H]1c1cc(O)c(O)c(O)c1)c1cc(O)c(O)c(O)c1` [EGCG, epigallocatechin gallate], the “lung to muscle ΔCNR after Gd-9 injection, day 21 vs day 10” value in data set [1] (EGCG 100 mg/kg oral gavage daily for 11 days) is “significantly decreased”. Further, in data set [1] (setting [9]), the lung allysine content entry is given as “significantly reduced” and the “lung hydroxyproline (total collagen)” value is on record as “reduced”.
In the case of `NN1CCN(C(=O)CCOCCOCCOCCOCCNC(=O)CN2CCN(CC(=O)[O-])CCN(CC(=O)[O-])CC2)CC1.[Ga+3]` [Ga-1], the “k (second order rate constant)” value in [2] was found to be 0.06 M⁻¹ s⁻¹.
On the same count and under the same terms, the same measure for `NC(Cn1cccc1)C(=O)NCCOCCOCCOCCNC(=O)CN1CCN(CC(=O)[O-])CCN(CC(=O)[O-])CC1.[Ga+3]` (stereo not shown) [Ga-2]: 0.11 M⁻¹ s⁻¹; for `O=C([O-])CN1CCN(CC(=O)[O-])CCN(CC(=O)NCCOCCOCCOCCNC(=O)CN2C(=O)CSC2=S)CC1.[Ga+3]` [Ga-4]: 0.34 M⁻¹ s⁻¹.
For the compound `NN1CCN(C(=O)CCC(C(=O)[O-])N2CCN(CC(=O)[O-])CCN(CC(=O)[O-])CCN(C(CCC(=O)N3CCNCC3)C(=O)[O-])CC2)CC1.[Gd+3]` (stereo not shown) [Gd-11], in data set [3], the “r1, +BSA-Ald” value is 7.6 mM⁻¹ s⁻¹; the “r1, Bound to BSA-Ald” value is 13.7 mM⁻¹ s⁻¹ and 13.8 mM⁻¹ s⁻¹. In data set [3] (1.41 T), the “increase of r1 in BSA^Ald compared to PBS value” turned out to be 23%. The “r1, +BSA” value in data set [4] came out at 6.2 mM⁻¹ s⁻¹. Further, in data set [5], the “r1, PBS” value worked out at 6.2 mM⁻¹ s⁻¹. Moreover, on BSA-ALD, the “equilibrium binding to BSA^Ald (binding yield)” value is 19.2%. In addition, in data set [6] (PBS, pH 7.4, 2 h, 37° C., 1.41T), the “relaxivity in ECM” value was 6.7 mM⁻¹ s⁻¹. Moreover, the “relaxivity in ECM with 100-fold excess of hydrazine” value in data set [6] (aldehydes blocked with N2H4) was 6.1 mM⁻¹ s⁻¹.
On to `CCCCN1CCN(CCCC(=O)N2CCN(N)CC2)CCN(CC(=O)[O-])CCN(CC(=O)[O-])CC1.[Mn+2]` [Mn-13], for which, in [3], the “r1, +BSA-Ald” value stood at 2.3 mM⁻¹ s⁻¹ and the “r1, Bound to BSA-Ald” value is 6.2 mM⁻¹ s⁻¹. Besides, the “r1, +BSA” value in data set [4] came to 1.9 mM⁻¹ s⁻¹. Moreover, the “r1, PBS” value in data set [5] turned out to be 1.6 mM⁻¹ s⁻¹. Also, the “k (second order rate constant)” value in data set [7] amounted to 1.9 M⁻¹ s⁻¹. Moreover, the “Mn liver levels in healthy mice” value in [8] is recorded as “high Mn liver levels; also recorded: elevated levels”.
As to `NNC(=O)CCCN1CCN(CCCC(=O)NN)CCN(CC(=O)[O-])CCN(CC(=O)[O-])CC1.[Mn+2]` [Mn-14], in data set [3], the “r1, +BSA-Ald” value was found to be 2.5 mM⁻¹ s⁻¹ and the “r1, Bound to BSA-Ald” value is 7.3 mM⁻¹ s⁻¹. Moreover, the “r1, +BSA” value in data set [4] amounted to 1.8 mM⁻¹ s⁻¹. In addition, in data set [5], the “r1, PBS” value is 1.5 mM⁻¹ s⁻¹. The “k (second order rate constant)” value in data set [7] was 1.4 M⁻¹ s⁻¹.

The record behind these values is US20240285808A1, “MOLECULAR PROBES FOR IN VIVO DETECTION OF ALDEHYDES” (The General Hospital Corporation, priority 2021, published 2024).
